The record followed here is patent US20220280661A1, “GLUCOCORTICOID RECEPTOR RADIOLIGANDS AND METHODS FOR THEIR PREPARATION AND USE” (The Regents of the University of California, priority 2019, published 2022).

SMILES strings stand for the structures.

The subject of assay [1] is GR. Kind of assay: Immunoblot of GR in mouse tissues after JG231 treatment. The assay is classed as in vivo. Particulars: 4 mg/kg/day for three days intraperitoneally. An excerpt:
GR levels were not impacted in liver, kidneys, or muscle, as predicted based on the radiotracer biodistribution data.
(§1) The limitations of broad-spectrum GR modulators like corticosteroids are well known, and the severe side effects associated with their long term use (e.g. diabetes mellitus, osteoporosis) motivated drug development campaigns starting in the 1990s to identify safer GR modulators that selectively modulate GR activity (Sundahl, et al. Pharmacol. Ther. 2015, 152, 28-41). […] To test this concept, the biodistribution of ^18F-YJH08 was evaluated in mice after treatment with JG231 (FIGS. 10A and 10B). […] Using the same treatment strategy, mice were subjected to 4 mg/kg/day for three days intraperitoneally, and subsequently treated with ^18F-YJH08. […] In these regions, it appeared that JG231 suppressed radiotracer binding, perhaps indicative of GR degradation. […] Immunoblot studies corroborated the biodistribution data, showing approximately ˜50% reduction in GR expression levels due to JG231 treatment in brown fat, and no change in GR levels from other tissues, for example, kidneys, liver, and muscle (FIG. 10E). This is believed to be the first example of tissue specific GR degradation.
(In general: In western blotting, separated proteins are transferred to a membrane and probed.)

The subject of assay [2] is GR. Kind of assay: Immunoblot of GR in breast cancer cell lines treated with JG231. Type of assay: cell-based, human. As to conditions: 24 hours. As for the experimental part: Cells were treated with the indicated dose for 24 hours.
Assay [3] has as its system GR. Kind of assay: 18F-YJH08 PET/biodistribution after JG231 treatment. Type of assay: in vivo, mouse. As to conditions: once daily for 3 days via intraperitoneal injection. As for the experimental part: At right is shown a maximum intensity projection of supraspinal BAT and muscle from a representative mouse in either treatment arm. Mice (n=5/treatment arm) were treated with JG231 or vehicle once daily for 3 days via intraperitoneal injection.
The biodistribution data are representative of two independent experiments.
as §1, with “This is believed to be the first example of tissue specific GR degradation.” left out

As for `CCn1c(=O)/c(=C2\Sc3cc(Cl)ccc3N2C)s/c1=C\c1scc[n+]1Cc1ccc(Br)s1.[Cl-]` [JG231, 3-((5-bromothiophen-2-yl)methyl)-2-((Z)-((E)-5-(6-chloro-3-methylbenzo[d]thiazol-2(3H)-ylidene)-3-ethyl-4-oxothiazolidin-2-ylidene)methyl)thiazol-3-ium chloride], in assay [1], the “GR levels in kidneys, liver, and muscle” value is “no change”; the “reduction in GR expression levels in brown fat” value is about 50%. The “GR degradation (immunoblot), MCF7” value in assay [2] (MCF7 cells) is listed as “degrades GR”. The “GR degradation (immunoblot), MDA MB 231” value in assay [2] (MDA MB 231 cells) is given as “degrades GR”. The “effect on ^18F-YJH08 tissue uptake” value in assay [3] is given as “suppressed radiotracer uptake exclusively in the supraspinal brown fat pad”.
